Reference: US20220280405A1, “NOVEL COMPOUNDS FOR SKIN LIGHTENING” (Conopco, Inc. , d/b/a UNILEVER, priority 2019, published 2022)

Test system: Melanoderm human tissue (MEL-300-B, Mattek Corp.)
Test: Melanoderm assay (melanin quantitation)
Format: cell-based
Conditions: for Melanin (μg/μg protein): 12 d dosing, melanin normalized to protein, mean +/− standard deviation, n = 3
Procedure: Control compounds consisted of a negative control (ultrapure water), vehicle control (DMSO in ultrapure water—final concentration of 0.1%) and positive control (2% kojic acid in ultrapure water—final concentration of 700 uM). Test compounds where prepared in DMSO at 10 mM concentrations and diluted with EPI-100-LLMM media (Mattek Corp.) to a final concentration of 10 uM. Melanoderm human tissue (MEL-300-B, Mattek Corp.) was equilibrated with EPI-100-NMM media for 24 h, followed by equilibration with EPI-100-LLMM media for 48 h prior to treatment with test compounds and controls. Dosing and re-feeding of melanoderms with controls and test compounds continued for a total of 12 d following standard protocols and the melanoderms collected for melanin quantitation, viability analysis and macroscopic/microscopic imaging analysis. For melanin quantitation, tissues were suspended in PBS buffer (5 ml) for 5 min, removed from the PBS and washed/rinsed with additional PBS (2 ml). Tissues were treated with 1% sodium bicarbonate solution (300 ul) for 30 min, followed by removal of the sodium bicarbonate solution and washed/rinsed with PBS solution (2×2 ml). Tissues were suspended in Solvable reagent (500 ul) and incubated at 95° C. for 24 h along with melanin standard samples (prepared by suspending melanin (cat # M8631, Sigma-Aldrich) in Solvable reagent to generate melanin standards at 0, 2.5, 5, 10, 25, 50 and 100 ug). All incubated samples were centrifuged at 13000 rpm for 5 min and the optical density of the supernatant was read/determined at 490 nm. The amount of melanin (ug) from each tissue sample was determined from the melanin standard samples calibration curve. Protein concentration of tissue samples was determined using the BCA protein assay kit (Pierce) and melanin content was normalized and expressed as melanin (ug)/protein (ug) (Table 1). Tissue viability as a result of test compound dosing/feeding relative to negative and vehicle controls was determined using the WST-1 reagent kit (cat # 05015944001, Roche). […]

| SMILES | Melanin (μg/μg protein) (positive control 700 μM) | melanin content / skin lightening effect (in words) (melanoderm treatment, 10 uM, compared to vehicle control) | Melanin (μg/μg protein) (test compound 10 uM) |
| --- | --- | --- | --- |
| O=c1cc(CO)occ1O [Kojic acid, reference compound] | 0.128 +/− 0.004 μg/μg protein | – | – |
| CC(C)Oc1ccc(C(NC2CCOCC2)C2CCCCC2)cc1 (stereo not drawn) [Compound of example 1, N-(cyclohexyl(4-isopropoxyphenyl)methyl)tetrahydro-2H-pyran-4-amine] | – | reduced melanin content | 0.177 +/− 0.019 μg/μg protein |
